In PMC406516 (BMC Clinical Pharmacology, 2004):

Key:
[1] = molecular target: Pharmaceutical-grade albumin Octapharma (Homo sapiens, UniProt P02768); assay: Drug binding by ultrafiltration in pharmaceutical-grade albumin from Octapharma; conditions: for n1 (specific binding sites): Final product
[2] = molecular target: Pharmaceutical-grade albumin Baxter/Immuno (Homo sapiens, UniProt P02768)
[3] = molecular target: Pharmaceutical-grade albumin Pharmacia & Upjohn (Homo sapiens, UniProt P02768)
[4] = molecular target: albumin solutions from Baxter/Immuno, Octapharma, and Pharmacia & Upjohn (Homo sapiens, UniProt P02768)
Chain of albumin solutions from Baxter/Immuno, Octapharma, and Pharmacia & Upjohn (P02768 25-609): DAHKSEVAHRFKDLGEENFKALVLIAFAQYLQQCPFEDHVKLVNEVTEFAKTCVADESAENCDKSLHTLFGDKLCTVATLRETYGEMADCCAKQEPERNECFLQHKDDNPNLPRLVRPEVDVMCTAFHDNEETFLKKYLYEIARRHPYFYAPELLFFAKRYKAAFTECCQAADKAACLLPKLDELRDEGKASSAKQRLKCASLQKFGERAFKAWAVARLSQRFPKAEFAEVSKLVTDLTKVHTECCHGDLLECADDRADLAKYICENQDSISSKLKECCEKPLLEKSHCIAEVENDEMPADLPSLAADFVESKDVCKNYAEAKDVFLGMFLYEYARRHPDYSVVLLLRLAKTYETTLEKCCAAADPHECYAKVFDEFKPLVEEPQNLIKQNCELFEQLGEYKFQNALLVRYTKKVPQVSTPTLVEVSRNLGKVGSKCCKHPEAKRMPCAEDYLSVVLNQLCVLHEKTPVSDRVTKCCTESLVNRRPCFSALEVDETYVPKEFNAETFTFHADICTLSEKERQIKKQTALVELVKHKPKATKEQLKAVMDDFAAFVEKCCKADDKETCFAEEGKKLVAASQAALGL

[5] = molecular target: in-process albumin (Octapharma, before addition of stabilisers and final heating) (Homo sapiens, UniProt P02768); assay: Drug binding by ultrafiltration in in-process albumin from Octapharma; conditions: mean (SD), 5 experiments
Chain of in-process albumin (Octapharma, before addition of stabilisers and final heating) (P02768 25-609): as above

Human serum = Human serum (Homo sapiens, UniProt P02768); assay: Drug binding by ultrafiltration in native human serum
Chain of Human serum (P02768 25-609): as above

[6] = molecular target: Sigma albumin and native human serum (Homo sapiens, UniProt P02768); conditions: relative to K1 of naproxen; summary of Table 2
Chain of Sigma albumin and native human serum (P02768 25-609): as above

[7] = molecular target: defatted human serum albumin (Sigma albumin) (Homo sapiens, UniProt P02768); assay: Drug binding by ultrafiltration in Sigma albumin solution; conditions: isolated protein, pH 7.4
Chain of defatted human serum albumin (Sigma albumin) (P02768 25-609): as above

albumin = conditions: cited from earlier work
[8] = charcoal treated, mean (SD), 5 experiments
[9] = Octapharma albumin 0.615 mmol/L, Scatchard, mean (SD), 5 experiments
[10] = human, isolated protein, pH 7.4
[11] = Baxter/Immuno albumin 0.615 mmol/L, Scatchard, mean (SD), 5 experiments
[12] = Pharmacia & Upjohn albumin 0.615 mmol/L, Scatchard, mean (SD), 5 experiments
[13] = human serum, Scatchard, mean (SD), 5 experiments

Chain of Pharmaceutical-grade albumin Octapharma (P02768 25-609): as above
Chain of Pharmaceutical-grade albumin Baxter/Immuno (P02768 25-609): as above
Chain of Pharmaceutical-grade albumin Pharmacia & Upjohn (P02768 25-609): as above

## C[C@H]1O[C@@H](O[C@H]2[C@@H](O)C[C@H](O[C@H]3[C@@H](O)C[C@H](O[C@H]4CC[C@@]5(C)[C@H](CC[C@@H]6[C@@H]5CC[C@]5(C)[C@@H](C7=CC(=O)OC7)CC[C@]65O)C4)O[C@@H]3C)O[C@@H]2C)C[C@H](O)[C@@H]1O [Digitoxin, digitoxin]
[1]; [8]
  n1 (specific binding sites): 1.3 (0.2)
[1]; not charcoal treated, mean (SD), 5 experiments
  n1 (specific binding sites): 1.1 (0.1)
[1]; [9]
  Specific binding n1 (number of binding sites): 0.9 (0.03)
[1]; [10]
  fraction unbound at 30 min: 0.1
[2]; [11]
  Specific binding n1 (number of binding sites): 1.1 (0.1)
[2]; [10]
  fraction unbound at 30 min: 0.111
[3]; [12]
  Specific binding n1 (number of binding sites): 1.4 (0.3)
[3]; [10]
  fraction unbound at 30 min: 0.115
[4]; pharmaceutical-grade albumins versus native human serum and Sigma albumin
  free fraction higher than in native human serum and Sigma albumin: ~2 times
[5]; charcoal treated
  n1 (specific binding sites): 0.8 (0.03)
[5]; not charcoal treated
  n1 (specific binding sites): 0.8 (0.03)
Human serum; [13]
  Specific binding n1 (number of binding sites): 1.8 (0.5)
Human serum; human, serum, pH 7.4
  fraction unbound at 30 min: 0.049
[6]
  K1 higher than that of naproxen: ~100 times
[7]
  fraction unbound at 30 min: 0.051
albumin
  albumin-bound: more than 95%

## COc1ccc2cc([C@H](C)C(=O)O)ccc2c1 [Naproxen, naproxen]
[1]; [8]
  n1 (specific binding sites): 1.1 (0.1)
[1]; charcoal treated, mean (SD), 5 experiments, listed as naproxen
  n1 (specific binding sites): 1.1 ± 0.1
[1]; [9]
  Non Specific binding n2 (number of binding sites): 4.0 (0.3)
[2]; [11]
  Non Specific binding n2 (number of binding sites): 3.8 (0.2)
[3]; [12]
  Non Specific binding n2 (number of binding sites): 3.8 (0.3)
[4]; albumin solutions from Baxter/Immuno, Octapharma, and Pharmacia & Upjohn
  specific binding: abolished
Human serum; [13]
  Non Specific binding n2 (number of binding sites): 3.9 (0.2)
  Specific binding n1 (number of binding sites): 1.0 (0.1)
